We go through five compounds from patent US11383003B2, “Water soluble farnesol analogs and their use” (Kimberly-Clark Worldwide, Inc., priority 2012, dated 2022).

Data set [1] has as its system C. albicans SC5314. In words: Germ tube formation (GTF %) in vitro screening, GlcNAc-triggered differentiation assay. It counts as cell-based, Candida albicans. As to the method: Based on the results in FIG. 3, single cell suspensions of SC5314 was prepared as follows. Stock culture of C. albicans SC5314 was streaked onto YPD agar (YPDA) and incubated at 30° C. overnight. Single colonies were subcultured in YPD broth (YPDB) and incubated 30° C., 200 rpm overnight. Overnight culture in YPDB was subcultured in YPD broth again and incubated 30° C., 200 rpm 48 h. Cells were collected by centrifugation (4000 g 10 min) at 4° C., washed three times with sterile water, and then resuspended in sterile water a final concentration of 10^9 colony-forming unit/ml (cfu/ml). The suspension were stored at 4° C. at least 1 d, then subcultured into YPDB to a final concentration of 10^6 cfu/ml. After 48 h incubation, cell suspension was examined under the microscope for single cell percentage. When the single cell percentage exceeded 80%, cells were collected and washed three times with water, then resuspended in water to a final concentration of 10^9 cfu/ml, and stored at 4° C. for no more than a month.
Two approaches were taken to determine the percentage of cells with germ tubes formed (GTF %). One way was to count the total cells at the start of incubation, and count the ungerminated cells after incubation, then calculate the GTF % as (1—ungerminated cells/total cells at 0 h)*100. Another way was to store the samples at 15° C. for 20 h after incubation, then count the germinated cells and total cells after disaggregation, then calculated the GTF % as (germinated cells/total cells after storage)*100. […] Therefore, for practical purposes, the GTF % was determined by the first method, that is, GTF %=(1—ungerminated cells/total cells at 0 h)*100, for the in vitro screening discussed herein.
A screening medium, containing 11 mM imidazole buffer, 3 mM MgSO4, and 2.6 mM N-acetyl-D-glucosamine (GlcNAc) has been used to study the effect of farnesol analogs on the germ tube formation of C. albicans. Here, the germ tube formation of C. albicans in modified screening media was assessed with various concentrations of imidazole buffer (10 mM, 30 mM and 50 mM) and MgSO4 (0.5 mM, 1.5 mM and 3 mM). […] It took 2 h to 3 h for the GTF % to reach above 80%. For practical purposes, the screening medium, containing 11 mM imidazole buffer, 0.5 mM MgSO4, and 2.6 mM N-acetyl-D-glucosamine (GlcNAc) was adopted for in vitro screening the quorum sensing inhibitory effect of farnesol compounds.
The in vitro screening assay was based on the N-acetylglucosamine (GlcNAc)-triggered differentiation assay (Hornby et al., “Quorum sensing in the dimorphic fungus Candida albicans is mediated by farnesol;” Applied and Environmental Microbiology 67:2982-2992; 2001), which included 0.56 ml of 0.1 M imidazole buffer (pH 6.5), 0.15 ml of 0.1 M MgSO4, 0.13 ml of 0.1 M GlcNAc, and 4.16 ml of sterilized water. Bioassays of quorum sensing candidates were conducted by the addition of the chemical, as a solution in 100% methanol, to the bioassay media; the final concentration of methanol was no greater than 1%.

For data set [2], the system named is C. elegans glp4; sek1. In words: Toxicity: death rate of C. elegans glp4; sek1 fed on E. coli OP50. To be noted: for Death rate (%): 2 mM, worms fed on E. coli OP50, 25° C.; for toxicity to C. elegans fed on E. coli OP50 (in words): in vivo. As for the experimental part:
The toxicity of the selected compounds/products were tested using the C. elegans glp4; sek1 fed on E. coli OP50 (Table 5).
Stock cultures of C. albicans SC 5314 was subcultured into 3 ml of YPD broth and incubated at 30° C. Then the overnight culture in broth was spread onto YPD agar, and incubated at 30° C. The 24 h old lawn of SC5314 was used to feed worms for 2 h at 25° C. The control were worms fed on OP50.
The worms were washed off the YPD plates and washed twice with M9 buffer. The worms were resuspended in screening media, M9 buffer with 0.3% Tween 80. The worm suspension (50 μl) was dispensed into the wells of 96-well plates, 20-30 worms/well. Aliquots (50 μl) of compounds in screening media were added to wells, 5 wells each compound. The 96 well plates were incubated at 25° C. for up to 5 days. Live and dead worms were counted during incubation, and the death rates of worms were calculated.

For data set [3], the system named is C. elegans glp4; sek1 infected with C. albicans SC5314. In words: Death rate of C. elegans glp4; sek1 infected with C. albicans SC5314, 96 well plates. Particulars: for % change in the death rate compared to the control: 25° C. It counts as in vivo, Caenorhabditis elegans. As to the method:
Caenorhabditis elegans glp4; sek1 was used as the model for […]. Breger et al. (Breger, J.; Fuchs, B. B.; Aperis, G.; Moy, T. I., Ausubel, F. M., Mylonakis, E.; “Antifungal chemical compounds identified using a C. elegans pathogenicity assay.” PLoS Pathogens 3: 168-178; 2007) reported that the glp-4 mutation rendered the strain incapable of producing progeny at 25° C., and the sek-1 mutation enhanced the sensitivity of the strain to various pathogens, thereby decreasing the time for screening assays. It was observed that no progenies was produced by the Caenorhabditis elegans glp4; sek1 strain after 3 d incubation at 25° C.
The synchronization of C. elegans was achieved by collecting the eggs and arresting the larvae at L1 stage. The commonly used bleach treatment was able to release the eggs from the adult worms. However, it was observed that the released eggs were not always able to hatch after treated with sodium hypochlorite (0.2, 0.3, 0.4, 0.5, 0.7 or 1%) for 3-5 min. A modified egg laying method was developed to synchronize worms to L1 stage. In brief, stock cultures of C. elegans glp4; sek1, maintained on Nematode Growth Media plates (NGM plates), were subcultured onto NGM plates with OP 50 and incubated at 15° C. for 6-9 days. Then a chunk (1 cm^2) of agar with gravid adults was subcultured again onto NGM plates with OP50 and incubated at 15° C. After incubation of 3-7 days, the worms were gently washed off with 3 ml of M 9 buffer on the rotating platform (100 rpm). The plate was tilted on its lid to allow the liquid and worms drain to one side of the plate. The liquid and worms were aspirated off. The plate was washed again with M9 buffer three more times to remove OP50 as much as possible. After washing, the plate was incubated at 25° C. overnight to let the eggs hatch overnight. Since there was no OP50, the larvae were arrested at the L1 stage. The live C. elegans glp4; sek1 was quite curvy; whereas the dead C. elegans glp4; sek1 tended to be straight, and in most cases the dead worms with the hyphae of C. albicans pieced through the body. The curvy shape and movement after shaking were used as the criteria for live.
The In vitro screening assay, based on the method of Tampakakis et al (Tampakakis, E.; Okoli, I.; Mylonakis, E.; “A C. elegans-based, whole animal, in vivo screen for the identification of antifungal compounds.” Nature Protocols 3:1925-1931; 2008), is described as follows:
L1 worms, which were prepared by the modified egg-laying method, were collected by centrifugation at 675 g for 30 s at room temperature, and the supernatant was removed. Worms were resuspended in M 9 buffer and inoculated on NGM agar plates with OP50, ˜1000 worms per plate. After 2-3 days incubation at 25° C., the worms were washed off with M 9 buffer for the […] assay.
The control were worms fed on OP50.

Data set [4] has as its system C. albicans SC5314. In words: Effect of quorum sensing molecules on lag phase/growth of C. albicans in YPD broth. It is filed as cell-based, Candida albicans. To be noted: 100 μM, 37° C., 6 h.
Setting [5] is: 0.4 mM to 3 mM (the tested four concentrations).
Where [6] appears, read: 2.0 mM, 4 days, two replicates (* three).
[7] abbreviates: 2.0 mM, 5 days, two replicates (* three).

Each structure is given as a SMILES string.

As to `CC(C)=CCC/C(C)=C/CC/C(C)=C/COC(=O)CCC(=O)OCCCCO` [#2 synthesized analog], the “GTF % (mean ± SEM, n = 2)” value in data set [1] (100 μM, * one replicate) was found to be 71.2 ± 2.9%; in data set [1] (200 μM), 33.9 ± 0.6%. The “Death rate (%)” value in data set [2] worked out at 4 ± 0.6%. In addition, the “effect on death rate of infected C. elegans (in words)” value (“effect on death rate” for short) is recorded as “reduced the death rate significantly” in data set [3] (setting [5]) and “significantly reduced the death rate” in data set [3] (key finding, no concentration stated). The “% change in the death rate compared to the control” value (from here on “% change in the death rate”) in data set [3] (0.4 mM, 4 days, two replicates) was −36 ± 4%; in data set [3] (0.4 mM, 5 days, two replicates), −38 ± 2%; in data set [3] (1.0 mM, 4 days, two replicates), −28 ± 5%; in data set [3] (1.0 mM, 5 days, two replicates) it was −29 ± 10%; in data set [3] (setting [6]), −39 ± 11%; in data set [3] (setting [7]), −39 ± 11%. For the same compound, the “% change in the death rate” value in data set [3] (3.0 mM, 4 days, two replicates) is given as −40 ± 0%; in data set [3] (3.0 mM, 5 days, two replicates) it was −40 ± 4%.
With `CC(C)=CCC/C(C)=C/CC/C(C)=C/COCCCCO` [#5 synthesized analog], the “GTF % (mean ± SEM, n = 2)” value stood at 73.8 ± 4.8% in data set [1] (100 μM, * one replicate) and 53.6 ± 3.0% in data set [1] (200 μM). The “Death rate (%)” value in data set [2] came to 4%. Moreover, the “effect on death rate” value in data set [3] (setting [5]) is “did not have significant effect on the death of the worms”. Also, the “% change in the death rate” value in data set [3] (0.4 mM, 4 days, two replicates) is −3 ± 6%; in data set [3] (0.4 mM, 5 days, two replicates) it was −6 ± 3%; in data set [3] (1.0 mM, 4 days, two replicates) it was 2 ± 3%; in data set [3] (1.0 mM, 5 days, two replicates), 9 ± 1%; in data set [3] (setting [6]), −8 ± 1%; in data set [3] (setting [7]) it was 2 ± 2%. In addition, the “% change in the death rate” value in data set [3] (3.0 mM, 4 days, two replicates) is reported as −4 ± 4%; in data set [3] (3.0 mM, 5 days, two replicates) it was 4 ± 1%.
Take `C=CC(C)(O)CC/C=C(\C)CCC=C(C)C` (stereo not drawn) [trans-nerolidol, reference compound]: the “GTF % (mean ± SEM, n = 2)” value in data set [1] (100 μM, * one replicate) is 92.4* %; in data set [1] (200 μM), 51.6 ± 1.8%. Also, in data set [2], the “Death rate (%)” value turned out to be 23%. For the same compound, the “toxicity to C. elegans fed on E. coli OP50 (in words)” value in data set [2] was “toxic to the worm”. In addition, the “effect on death rate” value in data set [3] (setting [5]) was “increased the death rate of the worm significantly”. Besides, the “% change in the death rate” value in data set [3] (0.4 mM, 4 days, two replicates) is on record as 11 ± 4%; in data set [3] (0.4 mM, 5 days, two replicates), 4 ± 5%; in data set [3] (1.0 mM, 4 days, two replicates), 3 ± 7%; in data set [3] (1.0 mM, 5 days, two replicates) it was −8 ± 5%; in data set [3] (setting [6]) it was 25 ± 10%; in data set [3] (setting [7]), 10 ± 2%. Further, the “% change in the death rate” value came out at 7 ± 0% in data set [3] (3.0 mM, 4 days, two replicates) and 9 ± 9% in data set [3] (3.0 mM, 5 days, two replicates).
With `OCCc1ccc(O)cc1` [tyrosol], the “effect on the growth of C. albicans SC5314 (in words)” value in data set [4] is reported as “little effect on the growth”.
As to `CC(=O)OCC=C(C)CCC=C(C)CCC=C(C)C` [farnesyl acetate, reference compound], the “GTF % (mean ± SEM, n = 2)” value in data set [1] (100 μM, * one replicate) came to 51.9 ± 2.1%; in data set [1] (200 μM), 36.8 ± 0.8%. Further, the “Death rate (%)” value in data set [2] is 12%. Moreover, the “toxicity to C. elegans fed on E. coli OP50 (in words)” value in data set [2] is given as “toxic to the worm”. Moreover, the “effect on death rate” value in data set [3] (setting [5]) was “increased the death rate of the worm significantly”. The “% change in the death rate” value in data set [3] (0.4 mM, 4 days, two replicates) turned out to be 10 ± 6%; in data set [3] (0.4 mM, 5 days, two replicates), 4 ± 3%; in data set [3] (1.0 mM, 4 days, two replicates) it was 27 ± 7%; in data set [3] (1.0 mM, 5 days, two replicates) it was 15 ± 7%; in data set [3] (setting [6]), 21 ± 5%; in data set [3] (setting [7]), 9 ± 2%. The “% change in the death rate” value in data set [3] (3.0 mM, 4 days, two replicates) worked out at 24 ± 9%; in data set [3] (3.0 mM, 5 days, two replicates) it was 7 ± 10%.
